The record followed here is patent publication US20250205200A1, “5-METHOXY-N,N-[…][…] THE TREATMENT OF […]” (GH RESEARCH IRELAND LIMITED, priority 2022, published 2025).

Data set [1] is described as follows: Pharmacokinetics of 5-MeO-DMT and bufotenine after inhalation. It is filed as in vivo, human.
Data set [2] has as its system Escherichia coli (WP2 uvrA pKM101). Put plainly: Bacterial mutation test, Escherichia coli. The format is cell-based. As to conditions: up to 5000 μg/plate; absence and presence of S-9. The procedure: These conditions included treatments at concentrations up to 5000 μg/plate (the maximum recommended concentration according to current regulatory guidelines), in the absence and in the presence of a rat liver metabolic activation system (S-9).

Where only a bound is given, the exact number is not on record here.

For `COc1ccc2[nH]cc(CCN(C)C)c2c1` [5-MeO-DMT], the “Plasma concentration as % of Cmax” value in data set [1] (10 minutes after inhalation, 6, 12, 18 mg) is ≤ 10 % of Cmax; in data set [1] (2 hours after inhalation, 6, 12, 18 mg) it was ≤ 1 % of Cmax. Further, the “Detectability in the plasma” value in data set [1] (3 hours after inhalation, 6, 12, 18 mg) was “no longer detectable”. The “Time of maximum concentrations and pharmacological effects” value in data set [1] (inhaled) is “during and immediately after dosing”. Also, the “Accumulation upon repeated administration” value in data set [1] (repeated administration within 1 to 4 hours) is “No accumulation”. Moreover, the Induction of mutation entry in data set [2] is recorded as “did not induce mutation”.
